Reference: paper PMC9399069, “Imaging PARP with [^18F]rucaparib in pancreatic cancer models” (European Journal of Nuclear Medicine and Molecular Imaging, 2022)
One block for each compound: values may come before it.

Columns and labels:
AsPC1 cells [1] = experiment: Cell retention of [18F]rucaparib and [18F]olaparib in AsPC1 cells; type: cell-based, human; conditions: for Efflux: fraction exiting cells: in the first 10–30 min, biphasic efflux
Procedure: (§1) AsPC1 (1 × 10^5 cells/well) and PSN1 cells (7.5 × 10^4 cells/well) were exposed to [^18F]rucaparib (100 kBq, 4.8 GBq/μmol; [^TotalF]rucaparib final concentration: 258 nM) or [^18F]olaparib (400 kBq, 2.8 GBq/μmol: [^TotalF]olaparib final concentration: 242 nM) in 24-well plates at 37 °C for 30 min. Cell culture medium was removed, and cells were washed with PBS, followed by the addition of fresh medium (300 μL). Cells were then further incubated at 37 °C. Cell culture medium was removed, and cells were washed with PBS at different times (0–3 h). Cells were lysed using RIPA buffer for 15 min at room temperature, and the amount of ^18F in the cell lysates was measured as above.

PSN1 cells [2] = experiment: Cell retention of [18F]rucaparib and [18F]olaparib in PSN1 cells; type: cell-based, human; conditions: for Efflux: fraction exiting cells: in the first 10–30 min, biphasic efflux
Procedure: as §1

AsPC1 cells [3] = experiment: Protein expression by flow cytometry after PARP inhibitors or DNA-damaging reagents, AsPC1 cells; type: cell-based, human; conditions: 3 h
Procedure: (§2) Relative expression of PARP1, 2 and 3, ALDH2 and IMPDH2 was determined by flow cytometry. Cells (1 × 10^6 cells/well) were seeded in 96-well plates in growth medium, washed with FACS buffer (PBS, 2% FBS, 1 mM EDTA, 0.1% NaN3) and centrifuged at 500×g for 5 min. Immunostaining was performed using the Foxp3/transcription factor staining buffer set (eBioscience^TM, USA). Intracellular staining was conducted in permeabilisation buffer for 30 min at 4 °C in the dark using the following antibodies: AF488-conjugated anti-PARP-1 (1:100; sc-80070), AF594-conjugated anti-PARP-2 (1:100; sc-393310), anti-PARP-3 (1:100; sc-390771) or anti-PARP-tankyrase-1/2 (1:100; sc-365897) from Santa Cruz Biotechnology Inc. (USA), AF488-conjugated anti-IMPDH2 (1:500; ab-200770) from Abcam plc. (UK) and AF488-conjugated anti-ALDH2 (1:100, ABIN6817568) from Antibodies-online GmbH (UK). Fixable viability dye ef780 (1:4000; eBioscience^TM; 65-0865-14) was used for live and dead cells discrimination. Fixation of immunostained cells was performed for 15 min at room temperature. Flow cytometry was conducted on the CytoFLEX benchtop flow cytometer (Beckman Coulter, USA), with appropriate lasers and filters, positive and negative controls. Data were analysed using FlowJo^TM (Tree Star Inc., BD Biosciences, USA).
(§3) AsPC1 (1 × 10^5 cells/well) and PSN1 cells (7.5 × 10^4 cells/well) were exposed to methyl methanesulfonate (MMS) or temozolomide (TMZ) (100 μM, in a total of 270 μL growth medium) for 3 h at 37 °C. Additionally, [^18F]rucaparib (500 kBq, 3.6 GBq/μmol; [^TotalF]rucaparib final concentration: 301 nM) or [^18F]olaparib (400 kBq, 8.5 GBq/μmol; [^TotalF]olaparib final concentration: 300 nM) was added, and the cells were incubated at 37 °C for 30 min. Cell culture medium was removed, and cells were washed with PBS. For cell retention, fresh medium (300 μL) was added to the cells. Cells were then further incubated at 37°C for 3 h. Cell culture medium was removed, and the amount of ^18F in the cell lysates was measured as above. Protein expression of the cells after DNA-damaging treatments (or PARP inhibitors 10 μM) was performed using flow cytometry as above.

PSN1 cells [4] = experiment: Protein expression by flow cytometry after PARP inhibitors or DNA-damaging reagents, PSN1 cells; type: cell-based, human; conditions: 3 h
Procedure: as §2, §3

PSN1 xenografts [5] = experiment: Autoradiography of PSN1 tumour sections; type: in vivo, Balb/c nu/nu mice; conditions: unlabelled drug 0.5 mg co-administered
Procedure: Ex vivo localisation of [^18F]rucaparib in PSN1 xenografts was determined using autoradiography of tumour sections (10 μm). Uptake in the same tumour sections was compared to immunohistochemistry staining for PARP1, 2 and 3. Full details of procedures and protocols are provided in Supplemental Information.
PSN1 xenograft tissues were harvested and immediately flash-frozen using liquid nitrogen, and sectioned (10 µm) using a Leica CM1950 cryostat. Tissue sections were thaw-mounted onto Superfrost PLUS glass microscope slides (Menzel-Glaser, Thermo Scientific) and allowed to dry briefly at room temperature (RT). The slides were then fixed in 10% neutral buffered formalin […] (NBF) for 10 min at RT, dried, and exposed to a storage phosphor screen (PerkinElmer, Super Resolution, 12.5 x 25.2 cm) in a standard X-ray cassette for 15 h at 4 °C. The phosphor screen was then imaged using a Cyclone® Plus Storage Phosphor System (PerkinElmer).

SW620 cells = test system: SW620 cells; set-up: method as in PMID 24556618; conditions: cited from earlier work
[6] = set-up: method as in PMID 24216281, PMID 26438157; conditions: 10 mg/kg, administered orally or intraperitoneally; cited from earlier work
pancreatic cancer = conditions: phase II, pancreatic cancer patients with BRCA1/2 and PALB2 variants; cited from earlier work
PSN1 xenografts [7] = test system: PSN1 xenografts; set-up: method as in PMID 30389822; conditions: cited from earlier work
breast cancer xenografts = test system: breast cancer xenografts; set-up: method as in PMID 27841728, PMID 27069769; conditions: 1 h post-injection; cited from earlier work
AsPC1 cells [8] = experiment: Uptake and retention of radiolabelled PARP inhibitors in AsPC1 cells treated with DNA-damaging reagents; type: cell-based, human; conditions: 100 μM, 3 h, retention at 3 h
Procedure: as §3

PSN1 cells [9] = experiment: Uptake and retention of radiolabelled PARP inhibitors in PSN1 cells treated with DNA-damaging reagents; type: cell-based, human; conditions: 100 μM, 3 h, retention at 3 h
Procedure: as §3

[10] = set-up: method as in PMID 25895168, PMID 26337803, PMID 27689533; conditions: relatively low tumour uptake; cited from earlier work

Weighted cellular efflux half-life (AsPC1 cells [1]): 49.9 ± 6.8 min | Weighted cellular efflux half-life (PSN1 cells [2]): 43.9 ± 3.2 min
SMILES: CNCc1ccc(-c2[nH]c3cc(F)cc4c3c2CCNC4=O)cc1 [rucaparib]
Efflux: fraction exiting cells (AsPC1 cells [1]): more than 50% | Efflux: fraction exiting cells (PSN1 cells [2]): more than 50% | PARP1 expression (MFI) after exposure of PARP inhibitors (AsPC1 cells [3]; 10 μM, flow cytometry): upregulated | PARP1 expression (MFI) after exposure of PARP inhibitors (PSN1 cells [4]; 10 μM, flow cytometry): upregulated | 18F signal of [18F]rucaparib in tumour sections from treated tumours (PSN1 xenografts [5]): significantly reduced | Cellular efflux half-life (SW620 cells): 20 min | Blood half-life [6]: 1.4 to 1.5 h | Fraction of patients who benefited from treatment (pancreatic cancer): two-thirds

SMILES: O=C(c1cc(Cc2n[nH]c(=O)c3ccccc23)ccc1[18F])N1CCN(C(=O)C2CC2)CC1 [[^18F]olaparib]
Tumour uptake (PSN1 xenografts [7]; PSN1 xenografts, 1 h post-injection): 3.16 ± 0.36 %ID/g | Weighted blood half-life (PSN1 xenografts [7]; same xenograft mice): 32.3 min

SMILES: O=C1NCCn2c(-c3ccc(OCC[18F])cc3)nc3cccc1c32 [[^18F]FTT]
Tumour-to-muscle (T/M) ratio (breast cancer xenografts): 1.2–1.9

SMILES: Cn1nnc2c(C(N)=O)ncn2c1=O [TMZ, temozolomide]
Upregulation of PARP proteins (AsPC1 cells [3]; 100 μM, flow cytometry): < 10% | γH2AX expression (AsPC1 cells [3]; 100 μM, not statistically significant in AsPC1 cells): increasing trend | γH2AX expression (PSN1 cells [4]; 100 μM): increasing trend | Upregulation of PARP proteins (PSN1 cells [4]; 100 μM, flow cytometry): < 10% | Cell association and retention of [TotalF]rucaparib and [TotalF]olaparib after exposure to DNA-damaging reagent (AsPC1 cells [8]): increased | Cell association and retention of [TotalF]rucaparib and [TotalF]olaparib after exposure to DNA-damaging reagent (PSN1 cells [9]): increased

SMILES: O=C(c1cc(Cc2n[nH]c(=O)c3ccccc23)ccc1F)N1CCN(C(=O)C2CC2)CC1 [olaparib]
Efflux: fraction exiting cells (AsPC1 cells [1]): more than 50% | Efflux: fraction exiting cells (PSN1 cells [2]): more than 50% | 18F signal of [18F]rucaparib in tumour sections from treated tumours (PSN1 xenografts [5]): significantly reduced

SMILES: CC1=CC(C)=[N+]2C1=Cc1ccc(CCC(=O)N3CCN(C(=O)c4cc(Cc5n[nH]c(=O)c6ccccc56)ccc4F)CC3)n1[B-]2(F)[18F] (centres unmarked) [[^18F]PARPi-FL]
Tumour uptake [10]: < 1 %ID/g
